# Several values for one entry are separate records, joined by “and”; a condition that tells them apart may be missing. Equal values may be shown once. Toxic doses and inconclusive results are not listed. Peptide text beside a SMILES is read from it. * marks the point of attachment. Cbz = O=C(OCc1ccccc1)*
# System: P388 leukemia ip, CD2F1 mice, survival T/C
# Assay: NCI In Vivo Anticancer Drug Screen. Data for tumor model P388 Leukemia (intraperitoneal) in CD2F1 (CDF1) mice
# Settings: endpoint: median survival time, higher = longer survival
# Outline: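 Mice carrying the transplanted tumor received test compound or vehicle. Survival was recorded in each group, and the value is the treated-group measurement divided by that of the vehicle-treated control group.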
# [1] = dose: 6.25 mg/kg/injection, schedule: Q01DX009 (ip), vehicle: water
# [2] = dose: 25.0 mg/kg/injection, schedule: Q01DX009 (ip), vehicle: water
# [3] = dose: 60.0 mg/kg/injection, schedule: Q01DX005 (ip), vehicle: saline with Tween-80
# [4] = dose: 120.0 mg/kg/injection, schedule: Q01DX005 (ip), vehicle: saline with Tween-80
# [5] = dose: 240.0 mg/kg/injection, schedule: Q01DX005 (ip), vehicle: saline with Tween-80
# [6] = dose: 60.0 mg/kg/injection, schedule: Q01DX005 (ip), vehicle: saline
# [7] = dose: 120.0 mg/kg/injection, schedule: Q01DX005 (ip), vehicle: saline
# [8] = dose: 240.0 mg/kg/injection, schedule: Q01DX005 (ip), vehicle: saline
# [9] = dose: 50.0 mg/kg/injection, schedule: Q01DX005 (ip), vehicle: Klucel (hydroxypropylcellulose) (HPC)
# [10] = dose: 100.0 mg/kg/injection, schedule: Q01DX005 (ip), vehicle: Klucel (hydroxypropylcellulose) (HPC)
# [11] = dose: 200.0 mg/kg/injection, schedule: Q01DX005 (ip), vehicle: Klucel (hydroxypropylcellulose) (HPC)
# [12] = dose: 50.0 mg/kg/injection, schedule: Q01DX009 (ip), vehicle: saline
# [13] = dose: 100.0 mg/kg/injection, schedule: Q01DX009 (ip), vehicle: saline
# [14] = dose: 200.0 mg/kg/injection, schedule: Q01DX009 (ip), vehicle: saline
# [15] = dose: 50.0 mg/kg/injection, schedule: Q01DX005 (ip), vehicle: saline
# [16] = dose: 100.0 mg/kg/injection, schedule: Q01DX005 (ip), vehicle: saline
# [17] = dose: 200.0 mg/kg/injection, schedule: Q01DX005 (ip), vehicle: saline
# [18] = dose: 50.0 mg/kg/injection, schedule: Q01DX009 (ip), vehicle: saline with Tween-80
# [19] = dose: 100.0 mg/kg/injection, schedule: Q01DX009 (ip), vehicle: saline with Tween-80
smiles,measurement,setting,value
Nc1n[n+](-c2cccc([N+](=O)[O-])c2)no1,T/C,"dose: 3.13 mg/kg/injection, schedule: Q01DX009 (ip), vehicle: other",113 % of control
same,T/C,"dose: 3.13 mg/kg/injection, schedule: Q01DX009 (ip), vehicle: water",106 % of control
same,T/C,"dose: 6.25 mg/kg/injection, schedule: Q01DX009 (ip), vehicle: other",113 % of control
same,T/C,[1],110 % of control
same,T/C,[2],121 % of control
same,T/C,"dose: 50.0 mg/kg/injection, schedule: Q01DX009 (ip), vehicle: other",113 % of control
COc1ccc(CCN2CC(=O)N3CSCC3C2=O)cc1OC (stereo not given),T/C,[3],100 % of control
same,T/C,[4],95 % of control
same,T/C,[5],95 % of control
O=C(NCCN1CCOCC1)Nc1ccc2c(c1)OCCOCCOCCOCCO2,T/C,[6],105 % of control
same,T/C,[7],102 % of control
same,T/C,[8],99 % of control
c1ccc2c(c1)N=C(NNC1=Nc3ccccc3SC1)CS2,T/C,"dose: 15.0 mg/kg/injection, schedule: Q01DX005 (ip), vehicle: saline with Tween-80",95 % of control
same,T/C,"dose: 30.0 mg/kg/injection, schedule: Q01DX005 (ip), vehicle: saline with Tween-80",92 % of control
same,T/C,[3],88 % of control
C=C1C[C@@]23CC[C@@H]4[C@](C)(CC[C@H](O)[C@]4(C)COC(=O)CCC(=O)O)[C@H]2CC[C@@H]1C3,T/C,[9],101 % of control
same,T/C,[10],100 % of control
same,T/C,[11],99 % of control
COCCOC,T/C,[12],95 % of control
same,T/C,[13],98 % of control
same,T/C,[14],100 % of control
same,T/C,"dose: 400.0 mg/kg/injection, schedule: Q01DX009 (ip), vehicle: saline",100 % of control
O=C(O)[C@@H]1C[C@@H](O)CN1,T/C,[12],96 % of control
same,T/C,[13],96 % of control
same,T/C,[14],100 % of control
O=C(O)C(CO)NC(=O)C1CCCN1C(=O)OCc1ccccc1 (stereo not drawn) (Cbz-Pro-Ser-OH; configuration not given here),T/C,[15],96 % of control
same,T/C,[16],93 % of control
CC(=O)/C(=C\c1cccs1)C(=O)CCN(C)C,T/C,[6],106 % of control and 111 % of control
same,T/C,[7],113 % of control and 122 % of control
same,T/C,[8],91 % of control
Nc1nc(-c2ccc(Nc3ccnc4cc(Cl)ccc34)cc2)cs1,T/C,"dose: 50.0 mg/kg/injection, schedule: Q01DX005 (ip), vehicle: saline with Tween-80",96 % of control
same,T/C,"dose: 100.0 mg/kg/injection, schedule: Q01DX005 (ip), vehicle: saline with Tween-80",88 % of control
same,T/C,"dose: 200.0 mg/kg/injection, schedule: Q01DX005 (ip), vehicle: saline with Tween-80",86 % of control
CCOC(=O)Nc1cc(Cl)c2[nH]cnc2n1,T/C,[9],97 % of control
same,T/C,[10],101 % of control
same,T/C,[11],108 % of control
O=C(NC1CCC1)OCc1c(COC(=O)NC2CCC2)c(-c2ccc(Cl)c(Cl)c2)n2c1CCC2,T/C,"dose: 3.13 mg/kg/injection, schedule: Q01DX009 (ip), vehicle: distilled water + Tween-80",117 % of control
same,T/C,"dose: 12.5 mg/kg/injection, schedule: Q01DX009 (ip), vehicle: distilled water + Tween-80",155 % of control
same,T/C,"dose: 25.0 mg/kg/injection, schedule: Q01DX009 (ip), vehicle: distilled water + Tween-80",173 % of control and 194 % of control
COc1ccn(C2CCCCO2)c(=O)n1 (stereo not given),T/C,[15],108 % of control
same,T/C,[16],108 % of control
same,T/C,[17],108 % of control
Cc1ncc(/C=N/O)n1Cc1ccccc1,T/C,[3],99 % of control
same,T/C,[4],93 % of control
same,T/C,[5],90 % of control
Nc1ncnc2c1nnn2CC(O)CO (stereo not given),T/C,"dose: 60.0 mg/kg/injection, schedule: Q01DX005 (ip), vehicle: Klucel (hydroxypropylcellulose) (HPC)",99 % of control
same,T/C,"dose: 120.0 mg/kg/injection, schedule: Q01DX005 (ip), vehicle: Klucel (hydroxypropylcellulose) (HPC)",92 % of control
Cc1cc2ccccc2nc1C#N,T/C,"dose: 25.0 mg/kg/injection, schedule: Q01DX005 (ip), vehicle: Klucel (hydroxypropylcellulose) (HPC)",105 % of control
same,T/C,[9],102 % of control
same,T/C,[10],101 % of control
same,T/C,[11],109 % of control
O=C1C2=C(Nc3cc(Cl)ccc3N2)OC1c1ccc(Cl)c(Cl)c1 (stereo not given),T/C,[9],92 % of control
same,T/C,[11],88 % of control
O=NNc1cncc2ccccc12,T/C,"dose: 1.56 mg/kg/injection, schedule: Q01DX009 (ip), vehicle: water",100 % of control
same,T/C,"dose: 3.12 mg/kg/injection, schedule: Q01DX009 (ip), vehicle: water",94 % of control
same,T/C,"dose: 6.0 mg/kg/injection, schedule: Q01DX008 (ip), vehicle: water",102 % of control
same,T/C,[1],94 % of control
same,T/C,"dose: 12.5 mg/kg/injection, schedule: Q01DX008 (ip), vehicle: water",113 % of control
same,T/C,"dose: 12.5 mg/kg/injection, schedule: Q01DX009 (ip), vehicle: water",104 % of control
same,T/C,"dose: 25.0 mg/kg/injection, schedule: Q01DX008 (ip), vehicle: water",111 % of control
same,T/C,[2],115 % of control
same,T/C,"dose: 50.0 mg/kg/injection, schedule: Q01DX008 (ip), vehicle: water",116 % of control
COC(CNCc1ccccc1)OC,T/C,"dose: 37.5 mg/kg/injection, schedule: Q04DX003 (ip), vehicle: saline",98 % of control
same,T/C,"dose: 75.0 mg/kg/injection, schedule: Q04DX003 (ip), vehicle: saline",104 % of control
same,T/C,"dose: 150.0 mg/kg/injection, schedule: Q04DX003 (ip), vehicle: saline",95 % of control
same,T/C,"dose: 300.0 mg/kg/injection, schedule: Q04DX003 (ip), vehicle: saline",98 % of control
NC(=O)C/C(N)=N/O,T/C,[15],98 % of control
same,T/C,[16],101 % of control
same,T/C,[17],100 % of control
CCC(C)C(NC(=O)OCc1ccccc1)C(=O)NC(CCSC)C(=O)O (stereo not drawn) (Cbz-Ile-Met-OH; configuration not given here),T/C,[9],99 % of control
same,T/C,[10],100 % of control
same,T/C,[11],96 % of control
CCN(CC)C(=O)C1CCCCN1Cc1c[nH]c2ccccc12 (stereo not given),T/C,"dose: 12.5 mg/kg/injection, schedule: Q01DX009 (ip), vehicle: saline with Tween-80",104 % of control
same,T/C,"dose: 25.0 mg/kg/injection, schedule: Q01DX009 (ip), vehicle: saline with Tween-80",109 % of control
same,T/C,[18],101 % of control
same,T/C,[19],99 % of control
COC(=O)c1nn2c(=O)n(C(C)=O)c3ccccc3c2c1C(=O)OC,T/C,[3],108 % of control
same,T/C,[4],109 % of control
same,T/C,[5],108 % of control
C=CC(=NC(C)(C)C)Nc1ccccc1Cl,T/C,"dose: 3.12 mg/kg/injection, schedule: Q01DX009 (ip), vehicle: Klucel (hydroxypropylcellulose) (HPC)",104 % of control
same,T/C,"dose: 6.25 mg/kg/injection, schedule: Q01DX009 (ip), vehicle: Klucel (hydroxypropylcellulose) (HPC)",103 % of control
same,T/C,"dose: 6.25 mg/kg/injection, schedule: Q01DX009 (ip), vehicle: saline",116 % of control
same,T/C,"dose: 12.5 mg/kg/injection, schedule: Q01DX009 (ip), vehicle: Klucel (hydroxypropylcellulose) (HPC)",102 % of control
same,T/C,"dose: 12.5 mg/kg/injection, schedule: Q01DX009 (ip), vehicle: saline",118 % of control and 93 % of control
same,T/C,"dose: 25.0 mg/kg/injection, schedule: Q01DX009 (ip), vehicle: saline",111 % of control
COc1cccc2c1C(=O)c1c(O)c3c(c(O)c1C2=O)C[C@@](O)(C(=O)COC(=O)c1ccccc1)C[C@@H]3OC1CC(N)C(O)C(C)O1 (stereo not given in full),T/C,"dose: 0.5 mg/kg/injection, schedule: Q01DX009 (ip), vehicle: saline sonified",168 % of control
same,T/C,"dose: 1.0 mg/kg/injection, schedule: Q01DX009 (ip), vehicle: saline sonified",186 % of control
same,T/C,"dose: 2.0 mg/kg/injection, schedule: Q01DX009 (ip), vehicle: saline sonified",190 % of control
CCOC(=O)c1c(C)csc1NC(=O)CSCC(=O)OC,T/C,[3],99 % of control
same,T/C,[4],100 % of control
same,T/C,[5],94 % of control
O=[N+]([O-])c1ccc(SC2=NCCN2Cc2ccccc2)c(Cl)c1,T/C,[18],88 % of control
same,T/C,[19],101 % of control
same,T/C,"dose: 200.0 mg/kg/injection, schedule: Q01DX009 (ip), vehicle: saline with Tween-80",94 % of control
COc1cc([C@@H]2c3cc(O)c(OC)cc3C[C@H]3C(=O)OC[C@@H]23)ccc1O,T/C,[9],96 % of control
same,T/C,[10],96 % of control
same,T/C,[11],100 % of control
CC(=O)Nc1ccccc1C(=O)C(=O)Nc1ccccc1C(=O)NN,T/C,[3],106 % of control
same,T/C,[4],89 % of control
same,T/C,[5],87 % of control

# — PubChem BioAssay AID330 (DTP/NCI, 2004)
